Read-outs that look alike come from different tables or passages of the source.
Key:
[1] = test system: male Wistar rats; test: Diuresis test: ED50 dose response, intravenous, urine electrolytes after 2.5 hours; format: in vivo; conditions: for ED50: Rattus norvegicus, iv, urine collected after 2.5 hours
Protocol: For the tests, male Wistar rats of about 130 g body weight from which food had been withheld for 18 hours were used. […] Intravenous administration for determining K^+ was at dosage intervals for the actiee substance of 0.05, 0.1, 0.2, 0.3, 0.6, 1, and 2 mg/kg: for determining Na^+ at dosage intervals of 0.5, 1, 2, 4, 8, 16 and 20 mg/kg. For the prior art substances compared, the same tests were made and these substances were further administered at 30 mg/kg and 100 mg/kg. Injection was into the caudal vein under light etherization. […] Peroral administration was by means of a stomach tube into the gastrointestinal tract.
Dose response curves were constructed by the use of non-linear regression analysis using the NONLIN computer program of C. Daniel and F. S. Wood in "Fitting Equations to Data" (J. Wiley & Sons, New York, 1980).
The characteristic quantity ED50 (potency) used in determining the diuretic activity is defined as the amount of active substance per kilogram of body weight required to produce a response in 50 percent of the subjects.

[2] = test system: male Wistar rats; conditions: furosemide 8.27 mg/kg i.v. alone; 1.5 hours; mean; control 5.0
Protocol: (§1) They were orally given 20 ml/kg of an 0.9% NaCl solution just before the test substance was administered intravenously. […] Injection was into the caudal vein under light ether anasthesia. As a rule six test animals were used per test. The animals were individually placed into diuresis cages and the urine was collected after 1.5 hours. Analysis was performed as for the determination of potency given above. IA stands for 2,4,7-triamino-6-[4-(2-hydroxy-3-dimethylaminopropoxy)phenyl]-pteridine.

[3] = test system: male Wistar rats; test: Diuresis test with individual pteridine compounds, intravenous, urine after 2.5 hours; format: in vivo; conditions: 2.5 μmol/kg i.v.; for K^+ -excretion: control 0.609; for Na^+ -excretion: control 0.83; for Volume of urine: control 7.37
Protocol: as §1, with “The animals were individually placed into diuresis cages and the urine was collected after 1.5 hours.” left out

[4] = cited from earlier work
[5] = K^+ (potassium-sparing), read-out: ED50 K^+
[6] = Na^+ (natriuretic), read-out: ED50 Na^+

| SMILES | K^+ -excretion [3] [mmol/kg] | Na^+ -excretion [3] [mmol/kg] | Volume of urine [3] [L/kg] | further results |
| --- | --- | --- | --- | --- |
| CN(C)CCCOc1ccc(-c2nc3c(N)nc(N)nc3nc2N)cc1 [DES-OH, 2,4,7-triamino-6-[4-(3-dimethylaminopropoxy)phenyl]-pteridine, reference compound] |  |  |  | ED50 [1, 5]: 0.54 µmol/kg; ED50 [1, 6]: 5.53 µmol/kg |
| NS(=O)(=O)c1cc(C(=O)O)c(NCc2ccco2)cc1Cl [Furosemide, 4-chloro-N-furfuryl-5-sulfamoylanthranilic acid] |  |  |  | Volume of urine [2]: 0.0525 L/kg |
| CN(C)CC(O)COc1ccc(-c2nc3c(N)nc(N)nc3nc2N)cc1 (centres unmarked) [IA, 2,4,7-triamino-6-[4-(2-hydroxy-3-dimethylaminopropoxy)phenyl]-pteridine] | 0.180 | 2.78 | 0.01598 | ED50 [1, 5]: 0.24 µmol/kg; ED50 ([1]; Mg^+2 (magnesium-sparing), read-out: ED50 Mg^+2): 0.4 µmol/kg; ED50 [1, 6]: 9.36 µmol/kg; diuretic efficacy (natriuretic, potassium- and magnesium-sparing properties) ([1]; i.v.): outstanding diuretic efficacy |
| CCNCC(O)COc1ccc(-c2nc3c(N)nc(N)nc3nc2N)cc1 (centres unmarked) [IB, 2,4,7-Triamino-6-[4-(2-hydroxy-3-ethylaminopropoxy)phenyl]-pteridine] | 0.161 | 2.98 | 0.01878 |  |
| CNCC(O)COc1ccc(-c2nc3c(N)nc(N)nc3nc2N)cc1 (centres unmarked) [IC, 2,4,7-Triamino-6-[4-(2-hydroxy-3-methylaminopropoxy)phenyl]-pteridine] | 0.211 | 2.63 | 0.01585 |  |
| Nc1nc(N)c2nc(-c3ccc(OCC(O)CN4CCOCC4)cc3)c(N)nc2n1 (centres unmarked) [ID, 2,4,7-Triamino-6-[4-(2-hydroxy-5-morpholinopropoxy)phenyl]-pteridine] | 0.237 | 2.78 | 0.0193 |  |
| CCN(CC)CC(O)COc1ccc(-c2nc3c(N)nc(N)nc3nc2N)cc1 (centres unmarked) [IE, 2,4,7-Triamino-6-[4-(2-hydroxy-3-diethylaminopropoxy)phenyl]-pteridine] | 0.163 | 2.61 | 0.01102 |  |
| Nc1nc(N)c2nc(-c3ccc(OCC(O)CN4CCCCC4)cc3)c(N)nc2n1 (centres unmarked) [IF, 2,4,7-Triamino-6-[4-(2-hydroxy-3-piperidinopropoxy)phenyl]-pteridine] | 0.191 | 1.95 | 0.01017 |  |
| Nc1nc(N)c2nc(-c3ccc(OCC(O)CN4CCCC4)cc3)c(N)nc2n1 (centres unmarked) [IG, 2,4,7-Triamino-6-[4-(2-hydroxy-3-pyrrolidinopropoxy)phenyl]-pteridine] | 0.172 | 2.14 | 0.0133 |  |
| CC(C)NCC(O)COc1ccc(-c2nc3c(N)nc(N)nc3nc2N)cc1 (centres unmarked) [IH, 2,4,7-Triamino-6-[4-(2-hydroxy-3-isopropylaminopropoxy)phenyl]-pteridine] | 0.161 | 2.49 | 0.01474 |  |
| CCCCNCC(O)COc1ccc(-c2nc3c(N)nc(N)nc3nc2N)cc1 (centres unmarked) [IJ, 2,4,7-Triamino-6-[4-(2-hydroxy-3-n-butylaminopropoxy)phenyl]-pteridine] | 0.176 | 2.86 | 0.01859 |  |
| CC(C)N(CC(O)COc1ccc(-c2nc3c(N)nc(N)nc3nc2N)cc1)C(C)C (centres unmarked) [IK, 2,4,7-Triamino-6-[4-(2-hydroxy-3-diisopropylaminopropoxy)phenyl]-pteridine] | 0.191 | 2.08 | 0.01024 |  |
| CCCCN(CCCC)CC(O)COc1ccc(-c2nc3c(N)nc(N)nc3nc2N)cc1 (centres unmarked) [IL, 2,4,7-Triamino-6-[4-(2-hydroxy-3-di-n-butylaminopropoxy)phenyl]-pteridine] | 0.191 | 2.34 | 0.01376 |  |
| Nc1nc(N)c2nc(-c3ccccc3)c(N)nc2n1 [Triamterene, 2,4,7-triamino-6-phenyl-pteridine, reference compound] | 0.402 | 1.17 | 0.00796 | ED50 [1, 5]: 1.87 µmol/kg; ED50 [1, 6]: 4.4 µmol/kg |
| Nc1nc(N)c2nc(-c3ccc(OCCCCC(=O)O)cc3)c(N)nc2n1 [Val-O-TA, 2,4,7-triamino-6-[4-(4-carboxybutoxy)phenyl]-pteridine] |  |  |  | diuretic, natriuretic, and antikaliuretic activity ([4]; administered intravenously): exhibit diuretic, natriuretic, and antikaliuretic activity; compensation of kaliuresis produced by furosemide ([4]; with Val-O-TA): compensated practically fully |

— patent publication US4910203A, “Pteridine compounds” (priority 1984, dated 1990)
